Common to all, as to assay: relative viability (nuclei count vs DMSO), 5 days (fraction); higher = more cells survive
Compound in assay [1]: CC(O)(CS(=O)(=O)c1ccc(F)cc1)C(=O)Nc1ccc(C#N)c(C(F)(F)F)c1 [Bicalutamide] + Nc1ncn([C@H]2C[C@H](O)[C@@H](CO)O2)c(=O)n1 [Decitabine] (partner 2 µM)
An outline of the steps: (§1)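 Lung cancer cell lines in 1536-well plates were dosed by pin tool the day after seeding, either with one drug alone or with a fixed anchor-drug dose plus five library-drug doses (not always all listed) in √10 steps. After 5 days, cells were fixed and their nuclei stained in one step (final 0.05% Triton X-100, 1% formaldehyde, 1 ug/ml Hoechst), then counted on 4× images. Relative viability is the nuclei count in treated wells divided by that in vehicle wells. Values are medians of duplicate plates.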

Compound in assay [2]: C(C(=O)C(=O)O)Br [Bromopyruvate] + CCNC(=O)c1noc(-c2cc(C(C)C)c(O)cc2O)c1-c1ccc(CN2CCOCC2)cc1 [Luminespib] (partner 0.01 µM)
An outline of the steps:
as §1

Compound in assay [3]: CC(O)(CS(=O)(=O)c1ccc(F)cc1)C(=O)Nc1ccc(C#N)c(C(F)(F)F)c1 [Bicalutamide] + CC(=O)Nc1cccc(-n2c(=O)n(C3CC3)c(=O)c3c(Nc4ccc(I)cc4F)n(C)c(=O)c(C)c32)c1 [Trametinib] (partner 0.02 µM)
In outline:
as §1

Compound in assay [4]: CC(O)(CS(=O)(=O)c1ccc(F)cc1)C(=O)Nc1ccc(C#N)c(C(F)(F)F)c1 [Bicalutamide] + C[C@]1(O)C[C@@H](c2nc(-c3ccc4ccc(-c5ccccc5)nc4c3)c3c(N)nccn32)C1 [Linsitinib] (partner 1 µM)
An outline of the steps:
as §1

In the case of SK-LU-1, the relative viability was 0.689 in assay [1] (first compound 0.08 µM); 0.611 in assay [1] (first compound 0.253 µM); 0.791 in assay [1] (first compound 0.8 µM); 0.61 in assay [1] (first compound 2.53 µM); 0.213 in assay [2] (first compound 1 µM); 0.195 in assay [2] (first compound 3.162 µM). The relative viability worked out at 0.208 in assay [2] (first compound 10 µM); 0.194 in assay [2] (first compound 31.62 µM); 0.215 in assay [2] (first compound 100 µM); 0.52 in assay [3] (first compound 0.08 µM); 0.565 in assay [3] (first compound 0.253 µM); 0.576 in assay [3] (first compound 0.8 µM). The relative viability in assay [3] (first compound 2.53 µM) amounted to 0.443; in assay [4] (first compound 0.08 µM), 1.24; in assay [4] (first compound 0.253 µM), 1.29; in assay [4] (first compound 0.8 µM), 1.17; in assay [4] (first compound 2.53 µM) it was 0.817.

With SK-MES-1, the relative viability in assay [1] (first compound 0.08 µM) came to 0.497; in assay [1] (first compound 0.253 µM) it was 0.374; in assay [1] (first compound 0.8 µM) it was 0.405; in assay [1] (first compound 2.53 µM), 0.416; in assay [2] (first compound 1 µM), 0.615; in assay [2] (first compound 3.162 µM), 0.882. For the same cell line, the relative viability was 0.948 in assay [2] (first compound 10 µM); 0.805 in assay [2] (first compound 31.62 µM); 0.881 in assay [2] (first compound 100 µM); 0.534 in assay [3] (first compound 0.08 µM); 0.508 in assay [3] (first compound 0.253 µM); 0.456 in assay [3] (first compound 0.8 µM). Moreover, the relative viability stood at 0.499 in assay [3] (first compound 2.53 µM); 1.14 in assay [4] (first compound 0.08 µM); 1.07 in assay [4] (first compound 0.253 µM); 1.07 in assay [4] (first compound 0.8 µM); 1.04 in assay [4] (first compound 2.53 µM).

Regarding SW 1573, the relative viability in assay [1] (first compound 0.08 µM) came out at 0.664; in assay [1] (first compound 0.253 µM), 0.457; in assay [1] (first compound 0.8 µM), 0.659; in assay [1] (first compound 2.53 µM) it was 0.441; in assay [2] (first compound 1 µM), 0.214; in assay [2] (first compound 3.162 µM), 0.212. The relative viability was 0.562 in assay [2] (first compound 10 µM); 0.135 in assay [2] (first compound 31.62 µM); 0.0625 in assay [2] (first compound 100 µM); 0.668 in assay [3] (first compound 0.08 µM); 0.473 in assay [3] (first compound 0.253 µM); 0.748 in assay [3] (first compound 0.8 µM). The relative viability in assay [3] (first compound 2.53 µM) was determined as 0.608; in assay [4] (first compound 0.08 µM), 0.834; in assay [4] (first compound 0.253 µM) it was 0.647; in assay [4] (first compound 0.8 µM), 0.887; in assay [4] (first compound 2.53 µM) it was 0.647.

For the origin of these results see the supplement of paper PMC10307832.
